Assay results taken from paper PMC9019904, “AD Informer Set: Chemical tools to facilitate Alzheimer's disease drug discovery” (Alzheimer's & Dementia : Translational Research & Clinical …, 2022).

How the values were obtained:
[1] = test system: BV2 (mouse microglia) cell line; assay: pHrodo-myelin phagocytosis/cell viability high content imaging assay: viability (cell count, nuclear area, nuclear intensity); details: 48 hours treatment
Outline: (§1)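 Viability was read as total cell count per well by high-content imaging, with mean average nuclear intensity per cell profiling apoptosis (rise early, fall late). Compounds were given at 10 μM for 48 h, pHrodo-myelin being added for the final 20 h. Values are means of two points as % untreated control.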

[2] = test system: HMC3 (human microglia) cell line; assay: as above; details: 48 hours treatment
Outline: as §1

[3] = test system: BV2 (mouse microglia) cell line; assay: pHrodo-myelin phagocytosis/cell viability high content imaging assay: phagocytosis signal; assay type: cell-based
Outline: (§2)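 Phagocytosis and cell viability were measured together by high content imaging about 22 hours after pHrodo-myelin addition. Three measurements were extracted from the images. Intensity increase and decrease were taken as early and later apoptosis, respectively.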

[4] = test system: HMC3 (human microglia) cell line; assay: as above; assay type: cell-based
Outline: as §2

[5] = BV2, compound 10 uM, pHrodo-myelin
[6] = HMC3, compound 10 uM, pHrodo-myelin
[7] = BV2 cells, 10 uM compound, 48 hours treatment, pHrodo-myelin final 20 hours
[8] = HMC3 cells, 10 uM compound, 48 hours treatment, pHrodo-myelin final 20 hours

| Structure (SMILES) | 1. Cell count (% control) ([1]; BV2, compound 10 uM) | 2. Nuclear Area (% Control) ([1]; BV2, compound 10 uM) | 3. Nuclear DNA Intensity (% control) ([1]; BV2, compound 10 uM) | 1. Cell count (% control) ([2]; HMC3, compound 10 uM) | 2. Nuclear Area (% Control) ([2]; HMC3, compound 10 uM) | 3. Nuclear DNA Intensity (% control) ([2]; HMC3, compound 10 uM) | 4. Phagocytosis (% control) [3, 5] | 4. Phagocytosis (% control) [4, 6] | 1. Cell count (% control) ([1]; BV2 cells, 10 uM compound) | 2. Nuclear Area (% Control) ([1]; BV2 cells, 10 uM compound) | 3. Nuclear DNA Intensity (% control) ([1]; BV2 cells, 10 uM compound) | 1. Cell count (% control) ([2]; HMC3 cells, 10 uM compound) | 2. Nuclear Area (% Control) ([2]; HMC3 cells, 10 uM compound) | 3. Nuclear DNA Intensity (% control) ([2]; HMC3 cells, 10 uM compound) | 4. Phagocytosis (% control) [3, 7] | 4. Phagocytosis (% control) [4, 8] |
| --- | --- | --- | --- | --- | --- | --- | --- | --- | --- | --- | --- | --- | --- | --- | --- | --- |
| CCc1cnn2c(NCc3ccc[n+]([O-])c3)cc(N3CCCC[C@H]3CCO)nc12 [UNC10302845A] | 16.3 % control | 103.8 % Control | 20.9 % control | 51.6 % control | 136.2 % Control | 97.0 % control | 3.5 % control | 167.0 % control |  |  |  |  |  |  |  |  |
| c1cn2cc(-c3ccc4cn[nH]c4c3)nc(Nc3ccc(N4CCOCC4)cc3)c2n1 [UNC10302678A] |  |  |  |  |  |  |  |  | 22.1 % control | 102.9 % Control | 164.6 % control | 74.7 % control | 98.9 % Control | 212.8 % control | 0.6 % control | 43.6 % control |
| COc1ccc(CC[C@@H](OC(=O)[C@@H]2CCCCN2C(=O)[C@H](c2cc(OC)c(OC)c(OC)c2)C2CCCCC2)c2cccc(OCC(=O)O)c2)cc1OC [UNC10302701A] | 117.8 % control | 104.1 % Control | 103.5 % control | 116.9 % control | 101.8 % Control | 97.5 % control | 156.6 % control | 71.9 % control |  |  |  |  |  |  |  |  |
| COc1cc(/C=C/c2ccc(NC(=O)/C=C/c3cc(OC)c(OC)c(OC)c3)cc2)cc(OC)c1 [UNC10302905A] |  |  |  |  |  |  |  |  | 33.3 % control | 95.8 % Control | 130.4 % control | 87.3 % control | 107.2 % Control | 109.8 % control | 64.0 % control | 65.4 % control |
| CCN(CC)c1ccc(/C=N/NC(=O)c2ccc(O)cc2)cc1 [UNC10302868A] |  |  |  |  |  |  |  |  | 64.8 % control | 105.9 % Control | 100.1 % control | 102.3 % control | 101.3 % Control | 100.0 % control | 142.8 % control | 65.0 % control |
| Cl.NCCOCCOCCNC(=O)Cc1ccc(Nc2nc(NCc3ccc(F)cc3)nc(NCC3CCCCC3)n2)cc1 [UNC10302950A] |  |  |  |  |  |  |  |  | 46.4 % control | 117.0 % Control | 104.0 % control | 97.2 % control | 95.7 % Control | 118.1 % control | 232.8 % control | 36.3 % control |
| O=C(N/N=C/c1ccc(Cl)cc1)c1ccccc1 [UNC10302877A] |  |  |  |  |  |  |  |  | 100.1 % control | 103.0 % Control | 107.1 % control | 103.0 % control | 94.5 % Control | 106.0 % control | 104.1 % control | 87.3 % control |
| Cc1cc(SCc2sc(-c3ccc(C(F)(F)F)c(F)c3)nc2C)ccc1OCC(=O)O [UNC10302862A] |  |  |  |  |  |  |  |  | 73.4 % control | 105.0 % Control | 104.6 % control | 84.5 % control | 103.8 % Control | 93.4 % control | 104.2 % control | 107.7 % control |
| Cc1cc(OCc2nnc(SC3CCCC3)n2-c2cccnc2)ccc1-c1ccc(S(C)(=O)=O)cc1 [UNC10302838A] | 15.0 % control | 98.1 % Control | 45.6 % control | 58.3 % control | 51.1 % Control | 240.9 % control | 0.0 % control | 33.5 % control |  |  |  |  |  |  |  |  |
